Like-named read-outs stand apart in the source and are kept apart here.
What was measured:
[1] = molecular target: T1, Leishmania mexicana arginase (LmARG) (Leishmania mexicana, UniProt Q6TUJ5); experiment: Inhibitor profile of recombinant LmARG; type: biochemical; conditions: for inhibition of LmARG / selective inhibition: preference for LmARG over HsARGI / block of LmARG activity (in words): 40 mM compound; for inhibition of LmARG / block of LmARG activity (in words): 40 mM L-arginine substrate; for selective inhibition: preference for LmARG over HsARGI: 40 mM L-arginine, comparison of the two enzymes; for Type of Inhibition: Dixon plot analysis, or assumed where Ki was calculated from panel data; for Ki: Dixon plot analysis; for inhibition: read-out: inhibition of LmARG
human ARGI (HsARGI) [2] = molecular target: T2, human ARGI (HsARGI) (Homo sapiens, UniProt P05089); experiment: Inhibitor profile of recombinant HsARGI; type: biochemical; conditions: for selective inhibition: preference for HsARGI over LmARG / block of HsARGI activity (in words) / inhibition of HsARGI: 40 mM compound; for selective inhibition: preference for HsARGI over LmARG: 40 mM L-arginine, comparison of the two enzymes; for block of HsARGI activity (in words) / inhibition of HsARGI: 40 mM L-arginine substrate; for inhibition at 40000 µM: read-out: inhibition of HsARGI
T2 sequence (P05089 1-322): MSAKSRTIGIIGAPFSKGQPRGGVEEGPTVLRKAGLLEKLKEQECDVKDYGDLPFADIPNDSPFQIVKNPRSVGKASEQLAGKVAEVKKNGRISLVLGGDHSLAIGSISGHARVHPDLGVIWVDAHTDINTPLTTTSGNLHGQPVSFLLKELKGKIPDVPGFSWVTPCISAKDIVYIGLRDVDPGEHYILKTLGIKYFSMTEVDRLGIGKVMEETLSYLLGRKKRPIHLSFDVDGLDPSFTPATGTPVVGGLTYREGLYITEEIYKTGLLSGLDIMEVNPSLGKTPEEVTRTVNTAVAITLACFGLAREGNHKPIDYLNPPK

human ARGI (HsARGI) [3] = molecular target: T2, human ARGI (HsARGI); experiment: HsARGI kinetic parameters and substrate specificity; type: biochemical; conditions: 50 mM, no L-arginine, 30 min
[4] = molecular target: T1, Leishmania mexicana arginase (LmARG); experiment: LmARG kinetic parameters and substrate specificity; conditions: 50 mM, no L-arginine, 30 min; data not shown
[5] = test system: Leishmania mexicana promastigotes; experiment: Parasite proliferation assay; type: cell-based; conditions: read-out: EC50 (concentration that inhibited growth by 50%); L. mexicana promastigotes, 5 days, alamarBlue; data not shown
L. major promastigotes = conditions: read-out: EC50 against L. major promastigotes; ref Reguera et al., 2009; cited from earlier work
[6] = test system: intact L. major promastigotes; conditions: ref Kropf et al., 2005; cited from earlier work
[7] = molecular target: T1, Leishmania mexicana arginase (LmARG); type: biochemical; conditions: co-activation with manganese and zinc; data not shown
N=C(N)NCCC[C@H](N)C(=O)O = experiment: purified protein, by the assay type; conditions: other: non-linear regression, L-arginine 7.8 – 50 mM; pH 9.5; 37.0 °C

NC(CCS)C(=O)O (racemic) [DL-homocysteine]
inhibition of LmARG [1]: > 50%
selective inhibition: preference for LmARG over HsARGI [1]: greater potency toward LmARG

Nc1nc2nc(N)[nH]c2c(=O)[nH]1 [8-aminoguanine]
selective inhibition: preference for LmARG over HsARGI [1]: greater potency toward LmARG
Type of Inhibition [1]: Uncompetitive
Ki ([1]; Ki vs. LmARG): < 2000 µM
inhibition [1]: > 50%
selective inhibition: preference for HsARGI over LmARG (human ARGI (HsARGI) [2]): preferentially inhibited the HsARGI activity

N[C@@H](CCCCB(O)O)C(=O)O [ABH, 2(S)-amino-6-boronohexanoic acid]
block of LmARG activity (in words) [1]: completely blocked
Type of Inhibition [1]: Competitive
Ki ([1]; Ki vs. LmARG): 1.3 µM
inhibition [1]: > 50%
Ki (human ARGI (HsARGI) [2]): 3.5 µM
block of HsARGI activity (in words) (human ARGI (HsARGI) [2]): completely blocked
inhibition at 40000 µM (human ARGI (HsARGI) [2]): > 50%

N[C@@H](CSCCB(O)O)C(=O)O [BEC, S-(2-boronoethyl)-L-cysteine]
block of LmARG activity (in words) [1]: completely blocked
Type of Inhibition [1]: Competitive
Ki ([1]; Ki vs. LmARG): ~10 µM
inhibition [1]: > 50%
Ki (human ARGI (HsARGI) [2]): 14 µM
block of HsARGI activity (in words) (human ARGI (HsARGI) [2]): completely blocked

NC(N)=NCCC[C@@H](N)C(=O)O [D-arginine]
activity as substrate of HsARGI (human ARGI (HsARGI) [3]): no activity
activity as substrate of LmARG [4]: did not recognize

N[C@@H](CS)C(=O)O [L-cysteine]
selective inhibition: preference for LmARG over HsARGI [1]: greater potency toward LmARG
Type of Inhibition [1]: Competitive
Ki ([1]; Ki vs. LmARG): 11000 µM
inhibition [1]: > 50%
Ki (human ARGI (HsARGI) [2]): > 30000 µM

CC(C)C[C@H](N)C(=O)O [L-leucine]
selective inhibition: preference for HsARGI over LmARG (human ARGI (HsARGI) [2]): preferentially inhibited the HsARGI activity
inhibition at 40000 µM (human ARGI (HsARGI) [2]): > 50%

NCCCC[C@H](N)C(=O)O [L-lysine]
selective inhibition: preference for HsARGI over LmARG (human ARGI (HsARGI) [2]): preferentially inhibited the HsARGI activity
inhibition at 40000 µM (human ARGI (HsARGI) [2]): > 50%

NCCC[C@H](N)C(=O)O [L-ornithine]
selective inhibition: preference for HsARGI over LmARG (human ARGI (HsARGI) [2]): preferentially inhibited the HsARGI activity
inhibition at 40000 µM (human ARGI (HsARGI) [2]): > 50%

N=C(NO)NCCC[C@H](N)C(=O)O [NOHA, N^ω-hydroxy-L-arginine]
block of LmARG activity (in words) [1]: completely blocked
inhibition of LmARG [1]: > 50%
Type of Inhibition [1]: Competitive
Ki ([1]; read-out: Ki vs. LmARG): 85 µM
block of HsARGI activity (in words) (human ARGI (HsARGI) [2]): completely blocked
inhibition of HsARGI (human ARGI (HsARGI) [2]): > 50%
EC50 [5]: 6000 µM
EC50 (L. major promastigotes): 40 µM

NCCCCN=C(N)N [agmatine]
activity as substrate of HsARGI (human ARGI (HsARGI) [3]): no activity
activity as substrate of LmARG [4]: did not recognize

OB(O)O [boric acid]
inhibition of LmARG [1]: > 50%
inhibition of HsARGI (human ARGI (HsARGI) [2]): > 50%
selective inhibition: preference for HsARGI over LmARG (human ARGI (HsARGI) [2]): preferentially inhibited the HsARGI activity

N=C(NO)NCC[C@H](N)C(=O)O [nor-NOHA, N^ω-hydroxy-nor-L-arginine]
block of LmARG activity (in words) [1]: completely blocked
Type of Inhibition [1]: Competitive
inhibition [1]: > 50%
block of HsARGI activity (in words) (human ARGI (HsARGI) [2]): completely blocked
inhibition at 40000 µM (human ARGI (HsARGI) [2]): > 50%
inhibition of conversion of arginine to ornithine by intact promastigotes [6]: does not inhibit

N[C@@H](CCC(=O)N[C@H]1CSSC[C@H](NC(=O)CC[C@H](N)C(=O)O)C(=O)NCC(=O)NCCCNCCCCNC(=O)CNC1=O)C(=O)O [trypanothione]
inhibition of LmARG [1]: > 50%
Type of Inhibition [1]: Uncompetitive
Ki ([1]; read-out: Ki vs. LmARG): < 5000 µM
inhibition of HsARGI (human ARGI (HsARGI) [2]): > 50%
selective inhibition: preference for HsARGI over LmARG (human ARGI (HsARGI) [2]): preferentially inhibited the HsARGI activity

[Cl-].[Cl-].[Zn+2] [zinc, ZnCl2]
LmARG activity on co-activation with manganese [7]: reduced activity to zero

Leishmania mexicana arginase (LmARG) (Leishmania mexicana)
Km (N=C(N)NCCC[C@H](N)C(=O)O): 25 ± 4 mM
